Laboratory results taken from patent US20080113908A1, “Use of CRF receptor agonists for the treatment or Prophylaxis of diseases, for example Neurodegenerative diseases” (SmithKline Beecham plc, priority 2000, published 2008).

Test system: primary cerebellar granule neurones
Test: Neuroprotection by agonists with or without cAMP inhibitor Rp-cAMP (FIG. 4)
Type: cell-based, rat
Settings: Rp-cAMP 100 μM; agonists 10 nM; LY 294002 75 μM
Method: FIG. 4 illustrates percentage mean survival of primary cerebellar granule neurones, when in the presence of the PI 3-kinase inhibitor LY 294002 (75 μM) and also a CRF receptor agonist at 10 nM (CRF, urocortin, urotensin 1, or sauvagine), in the absence or presence of the cAMP inhibitor Rp-cAMP (100 μM). The columns from left to right represent: (1) control without LY 294002 or agonist; (2) control without agonist but with LY 294002; (columns 3, 5, 7, 9) with LY 294002 and either CRF, urocortin, urotensin 1, or sauvagine respectively; (columns 4, 6, 8, 10) as columns 3, 5, 7 and 9 respectively but additionally also with Rp-cAMP. The approx. 20% reduction in neuroprotection when in the presence of Rp-cAMP is clear.

Nc1ncnc2c1ncn2[C@@H]1O[C@@H]2CO[P@@](O)(=S)O[C@H]2[C@H]1O [Rp-cAMPS]
reduction of neuronal rescue provided by the CRF receptor agonists: about 20%
